Experimental data as given in patent US20140001056A1 (priority 2011, published 2014).
Several values for one entry are separate records, joined by “and”; a condition that tells them apart may be missing. Equal entries are not always repeated. Where two headings read alike, the source gives them in different places.

Key:
α-HL monomer = α-HL monomer (Staphylococcus aureus, UniProt P09616)
α-HL heptamer = α-HL heptamer (Staphylococcus aureus, UniProt P09616)
WT-α-HL pore [1] = biological target: T1, WT-α-HL pore (Staphylococcus aureus, UniProt P09616); type: binding
T1 sequence (P09616 27-319 limits assumed): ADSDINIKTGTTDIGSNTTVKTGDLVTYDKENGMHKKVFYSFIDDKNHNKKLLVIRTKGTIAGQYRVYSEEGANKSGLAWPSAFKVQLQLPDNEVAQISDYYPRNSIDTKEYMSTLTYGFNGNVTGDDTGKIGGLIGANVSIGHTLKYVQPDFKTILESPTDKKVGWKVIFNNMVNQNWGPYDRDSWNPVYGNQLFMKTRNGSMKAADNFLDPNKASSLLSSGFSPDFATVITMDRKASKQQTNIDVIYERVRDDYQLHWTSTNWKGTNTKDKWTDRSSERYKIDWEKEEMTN

WT-α-HL pore [2] = biological target: T1, WT-α-HL pore; conditions: cited from earlier work
MspA (NNNRRK mutant) = MspA (NNNRRK mutant) (Mycolicibacterium smegmatis, UniProt A0QR29, D117N/D118N/D120N/D145R/D161R/E166K)
MspA (NNNRRK mutant), sequence (A0QR29 28-211 D117N/D118N/D120N/D145R/D161R/E166K limits assumed): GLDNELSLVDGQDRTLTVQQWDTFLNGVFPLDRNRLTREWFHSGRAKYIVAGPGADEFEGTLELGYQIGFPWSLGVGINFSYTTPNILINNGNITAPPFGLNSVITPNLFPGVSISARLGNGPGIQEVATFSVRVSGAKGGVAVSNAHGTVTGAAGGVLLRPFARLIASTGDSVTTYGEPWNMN

WT-Kcv = WT-Kcv (Paramecium bursaria Chlorella virus 1, UniProt Q84568)
WT-Kcv, sequence (Q84568 whole entry, looked up): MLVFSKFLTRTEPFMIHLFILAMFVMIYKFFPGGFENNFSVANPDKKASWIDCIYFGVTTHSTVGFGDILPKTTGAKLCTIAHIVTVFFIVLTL

α-HL heptamer, sequence (P09616 27-319 limits assumed): as the sequence (P09616 27-319 limits assumed) above
α-HL monomer, sequence (P09616 27-319 limits assumed): as above

Substance: C6F13C2H4—S-poly[tris(hydroxymethyl)aminomethane] [F6TAC]
- Initial rate of release of dye (α-HL monomer): 6.5 % min^−1
- Lag time before initiation of release (α-HL monomer): 7.5 min
- Initial rate of release of dye (α-HL heptamer): 16 % min^−1
- Lag time before initiation of release (α-HL heptamer): 4.8 min

Substance: β-cyclodextrin [βCD]
- Kd (WT-α-HL pore [1]): 5.4 mM and 9.6 mM
- gα-HL·βCD, unitary conductance with βCD bound (WT-α-HL pore [1]): 257 ± 3 pS and 232 ± 4 pS
- koff (WT-α-HL pore [1]): 1.7 ± 0.1 × 10^3 s^−1 and 2.4 ± 0.3 × 10^3 s^−1
- kon (WT-α-HL pore [1]): 3.1 ± 0.1 × 10^5 M^−1s^−1 and 2.5 ± 0.4 × 10^5 M^−1s^−1
- gα-HL·βCD, unitary conductance with βCD bound (WT-α-HL pore [2]): 253 ± 4 pS and 240 ± 3 pS
- koff (WT-α-HL pore [2]): 2.1 ± 0.2 × 10^3 s^−1 and 1.3 ± 0.1 × 10^3 s^−1
- kon (WT-α-HL pore [2]): 2.8 ± 0.2 × 10^5 M^−1s^−1 and 4.0 ± 0.3 × 10^5 M^−1s^−1

Substance: Fluorinated fos-choline [F6FC]
- gα-HL, unitary conductance in the absence of βCD (WT-α-HL pore [1]; pH 7.5): 650 ± 3 pS and 721 ± 4 pS
- Percent release of dye at end point (α-HL monomer): 0.2% and 0.3%
- Lag time before initiation of release (α-HL heptamer): 2.8 min and 4.3 min
- blockades or gating changes of MspA pores already inserted (MspA (NNNRRK mutant)): did not cause blockades or changes in the gating
- insertion of MspA pores into planar lipid bilayer (MspA (NNNRRK mutant)): No further insertion events occur
- blockades or gating changes of Kcv channels already inserted (WT-Kcv): did not cause blockades or changes in the gating
- insertion of Kcv channels into planar lipid bilayer (WT-Kcv): No openings are seen
- single-channel IV curve of Kcv (WT-Kcv): unchanged

Substance: Fluorinated octyl maltoside [F6OM]
- Initial rate of release of dye (α-HL monomer): 4 % min^−1
- Lag time before initiation of release (α-HL monomer): 4.4 min
- Initial rate of release of dye (α-HL heptamer): 16 % min^−1
- Lag time before initiation of release (α-HL heptamer): 1.8 min
